{"source": "ChEMBL document CHEMBL1155648", "about": "“Three new arylobenzofurans from Onobrychis ebenoides and evaluation of their binding affinity for the estrogen receptor” (J Nat Prod, 2000)", "target": "T1, Estrogen receptor (Homo sapiens, UniProt P03372)", "T1 sequence (P03372 whole entry)": "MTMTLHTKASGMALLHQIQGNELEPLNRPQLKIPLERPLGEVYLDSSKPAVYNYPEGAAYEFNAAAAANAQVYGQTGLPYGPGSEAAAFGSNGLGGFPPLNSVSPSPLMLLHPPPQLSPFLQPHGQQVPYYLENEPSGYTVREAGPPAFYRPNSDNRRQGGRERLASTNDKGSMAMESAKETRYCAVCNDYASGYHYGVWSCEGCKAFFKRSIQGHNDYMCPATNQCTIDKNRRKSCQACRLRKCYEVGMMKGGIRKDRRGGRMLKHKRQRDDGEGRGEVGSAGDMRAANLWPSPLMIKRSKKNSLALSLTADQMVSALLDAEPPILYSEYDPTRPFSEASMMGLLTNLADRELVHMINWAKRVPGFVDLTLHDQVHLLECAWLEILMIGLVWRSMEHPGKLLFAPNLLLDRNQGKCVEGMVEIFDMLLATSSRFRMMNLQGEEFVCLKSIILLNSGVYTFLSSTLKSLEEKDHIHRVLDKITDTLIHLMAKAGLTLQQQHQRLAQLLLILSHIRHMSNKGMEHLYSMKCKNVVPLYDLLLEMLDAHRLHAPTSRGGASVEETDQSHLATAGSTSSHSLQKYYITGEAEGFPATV", "assay": "Displacement of [3H]estradiol from estrogen receptor", "data": [{"compound": "COc1cc(O)c2c(C=O)c(-c3ccc(O)cc3O)oc2c1", "note": "[EBENFURAN II]", "values": [{"measurement": "IC50", "value": 43, "unit": "nM"}]}, {"compound": "COc1cc2oc(-c3ccc(O)cc3O)cc2cc1O", "note": "[EBENFURAN I]", "values": [{"measurement": "IC50", "value": 46, "unit": "nM"}]}]}
